Columns and labels:
[1] = molecular target: T1, human serotonin transporters (Homo sapiens, UniProt P31645); experiment: Serotonin transporter binding assay ([3H]-citalopram competition, HEK-hSERT cell membranes); conditions: 1 nM [3H]-citalopram, 1 hr at 25° C., read-out: SERT IC50
T1 construct: expressed in transfected cells
Method: Serotonin transporter binding assay. HEK-293 cells that stably express human serotonin transporters (HEK-hSERT cells) were grown at 37° C. in 5% CO2 as a monolayer in medium consisting of EMEM supplemented with 10% fetal bovine serum and G418 sulfate (500 μg/ml). To prepare membranes for radioligand binding experiments, cells were rinsed twice with phosphate-buffered saline (138 mM NaCl, 4.1 mM KCl, 5.1 mM Na2PO4, 1.5 mM KH2PO4, 11.1 mM glucose, pH 7.4). Cells were transferred from plates to polypropylene tubes (16×100 mm), centrifuged at 1,200×g for 5 min and were frozen at −80° C. until assay. Following centrifugation, pellets were resuspended by homogenization in buffer consisting of 50 mM Tris (pH 7.7 at 25° C.), 120 mM NaCl and 5 mM KCl and then centrifuged at 32,000×g for 10 min. Following centrifugation, supernatants were discarded and pellets were resuspended in buffer consisting of 50 mM Tris (pH 7.4 at 25° C.), 150 mM NaCl and 5 mM KCl. Membrane homogenates (200 μl/plate) were incubated with 1 nM [^3H]-citalopram (specific activity=85 Ci/mmol) and increasing concentrations of test compounds for 1 hr at 25° C. in a total volume of 250 μl. The assay buffer consisted of 50 mM Tris (pH 7.4 at 25° C.), 120 mM NaCl and 5 mM KCl (pH 7.4 with conc. HCl). Plates were incubated for 1 hr at 25° C., then filtered through 0.5% PEI treated Whatman GF/B filters using a Brandel cell harvester. Filters were washed three times with 3 ml of ice-cold tris wash buffer. Non-specific binding was defined with 10 μM fluoxetine. Amount of radioligand bound in the presence and absence of competitor was analyzed by plotting (−)log drug concentration versus the amount of radioligand specifically bound. The midpoint of the displacement curve (IC50, nM), signifies the potency. Ki values can be calculated using the method of Cheng and Prusoff (Cheng and Prusoff, Biochemical Pharmacology, Vol 22, pp. 3099–3108, Pergamon Press (1973)).

[2] = molecular target: T2, neurokinin-1 (NK-1) receptor (Homo sapiens, UniProt P25103); experiment: NK-1 Binding assay ([125I] Substance P competition, U373 cell membranes); conditions: Bolton Hunter labeled [125I] Substance P, 30 min at 20° C.
T2 construct: endogenously expresses the neurokinin-1 (NK-1) receptor; endogenous in cells; host or cells: U373 human glioblastoma-astrocytoma cells (membranes)
Method: NK-1 Binding assay. U373 cells, a human glioblastoma-astrocytoma cell line that endogenously expresses the neurokinin-1 (NK-1) receptor, were grown in a monolayer culture at 37° C. in 5% CO2 and fed with Minimum Essential Medium (MEM) supplemented with 10% fetal bovine serum. Membranes were prepared as follows: Cells were washed twice with ice-cold phosphate-buffered saline (pH 7.4) and then incubated for 5–10 minutes with ice-cold 10 mM Tris buffer (pH 7.4) containing 5 mM EDTA. Cells were removed from plates, homogenized, and centrifuged at 32,000×g for 20 minutes. The resulting supernatant was discarded, and the pellet resuspended by homogenization in 50 mM Tris buffer (pH 7.4) containing 1 mM EDTA and centrifuged at 32,000×g for 20 minutes. The resulting supernatant was discarded, and the pellet resuspended by homogenization in NK-1 binding assay buffer (50 mM Tris-HCL (pH 7.4), 3 mM MnCl2, 200 μg/ml BSA, 5 μg/ml chymostatin, 40 μg/ml bacitracin and 4 μg/ml leupeptin).
On the day of an experiment the membrane preparation was thawed, homogenized and diluted with NK-1 binding assay buffer to the appropriate concentration. Competition binding assays were performed in 96 well plate format by incubating membranes (5–10 μg/well) with Bolton Hunter labeled [^125I] Substance P, at a concentration of […], and concentrations of drugs ranging from 10000 to 0.01 nM. Samples were incubated for 30 min at 20° C. then filtered through GF/B glass fiber filters (pretreated with 1% polyethyleneimine and 0.3% Triton X-100) using a Brandel cell harvester. The filters were then washed with 10 ml ice cold 50 mM Tris-HCL (pH 7.4) containing 3 mM MgCl2. Non-specific was defined in the presence of 2 μM L-733,060 (a non-peptide NK-1 antagonist). The amount of radioligand bound in the presence and absence of competitor was analyzed by plotting (−)log drug concentration versus the amount of radioligand specifically bound. The midpoint of the displacement curve (IC50, nM), signifies the potency. Ki values can be calculated using the method of Cheng and Prusoff (Cheng and Prusoff, Biochemical Pharmacology, Vol 22, pp. 3099–3108, Pergamon Press (1973)).

T2 sequence (P25103 whole entry): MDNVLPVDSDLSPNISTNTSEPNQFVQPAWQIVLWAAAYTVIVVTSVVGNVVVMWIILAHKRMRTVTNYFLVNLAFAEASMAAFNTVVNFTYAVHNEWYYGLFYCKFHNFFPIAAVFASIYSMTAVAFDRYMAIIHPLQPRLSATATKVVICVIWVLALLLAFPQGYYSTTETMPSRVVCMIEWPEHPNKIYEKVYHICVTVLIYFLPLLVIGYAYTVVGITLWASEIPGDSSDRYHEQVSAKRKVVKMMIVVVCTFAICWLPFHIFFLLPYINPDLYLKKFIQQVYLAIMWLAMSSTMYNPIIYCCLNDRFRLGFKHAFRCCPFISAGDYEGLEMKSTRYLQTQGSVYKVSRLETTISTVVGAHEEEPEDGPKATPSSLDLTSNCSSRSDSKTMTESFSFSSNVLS
T1 sequence (P31645 whole entry): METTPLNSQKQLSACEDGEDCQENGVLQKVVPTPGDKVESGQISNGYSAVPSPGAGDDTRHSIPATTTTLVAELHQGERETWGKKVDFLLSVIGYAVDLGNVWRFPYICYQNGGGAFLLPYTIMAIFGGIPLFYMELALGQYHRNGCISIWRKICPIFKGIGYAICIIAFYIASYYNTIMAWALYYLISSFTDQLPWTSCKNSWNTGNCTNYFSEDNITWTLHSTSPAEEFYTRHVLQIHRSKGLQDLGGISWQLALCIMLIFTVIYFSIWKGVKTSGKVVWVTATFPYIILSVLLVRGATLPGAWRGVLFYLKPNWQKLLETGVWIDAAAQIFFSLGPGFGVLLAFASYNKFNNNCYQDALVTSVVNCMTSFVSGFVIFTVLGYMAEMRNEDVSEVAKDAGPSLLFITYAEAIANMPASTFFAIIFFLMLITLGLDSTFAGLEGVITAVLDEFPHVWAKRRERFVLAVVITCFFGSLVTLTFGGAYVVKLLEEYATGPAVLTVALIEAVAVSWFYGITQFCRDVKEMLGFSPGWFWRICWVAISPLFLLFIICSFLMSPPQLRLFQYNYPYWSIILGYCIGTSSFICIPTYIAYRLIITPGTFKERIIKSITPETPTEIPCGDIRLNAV

Row | SMILES | IC50 [1] | IC50 [2]
1 | CNCCC(COCc1cc(C(F)(F)F)cc(C(F)(F)F)c1)c1ccccc1 (stereo not drawn) [Example 72, 1-(3,5-bis(trifluoromethyl)benzyloxy)-4-methylamino-2-phenylbutane] | 1 to 100 nM | 1 to 100 nM
2 | CN(C)CC(O)(COCc1cc(C(F)(F)F)cc(C(F)(F)F)c1)c1ccccc1 (stereo not drawn) [Example 1, 1-(3,5-bis(trifluoromethyl)benzyloxy)-3-(dimethylamino)-2-phenylpropan-2-ol] | 100 to 300 nM | 1 to 100 nM
3 | Cc1cc(C(O)(CCN)COCc2cc(C(F)(F)F)cc(C(F)(F)F)c2)ccc1F (stereo not drawn) [Example 13, 1-(3,5-bis(trifluoromethyl)benzyloxy)-4-amino-2-(4-fluoro-3-methylphenyl)butan-2-ol] | 1 to 100 nM | 1 to 100 nM
4 | CC(CCN)(COCc1cc(C(F)(F)F)cc(C(F)(F)F)c1)c1ccccc1 (stereo not drawn) [Example 74, 1-(3,5-bis(trifluoromethyl)benzyloxy)-4-amino-2-methyl-2-phenylbutane] | 1 to 100 nM | 1 to 100 nM
5 | NCCC(O)(COCc1cc(C(F)(F)F)cc(C(F)(F)F)c1)c1ccc(F)cc1 (stereo not drawn) [Example 41, 1-(3,5-bis(trifluoromethyl)benzyloxy)-4-amino-2-(4-fluorophenyl)butan-2-ol] | 1 to 100 nM | 1 to 100 nM
6 | NCCC(O)(COCc1cccc(F)c1)c1ccccc1 (stereo not drawn) [Example 58, 1-(3-fluorobenzyloxy)-4-amino-2-phenylbutan-2-ol] | 100 to 300 nM | > 300 nM
7 | NCCC(O)(CSCc1cc(C(F)(F)F)cc(C(F)(F)F)c1)c1ccccc1 (stereo not drawn) [Example 80, 1-(3,5-bis(trifluoromethyl)benzylthio)-4-amino-2-phenylbutane-2-ol] | 1 to 100 nM | 100 to 300 nM
8 | NCCC(O)(COCc1cc(C(F)(F)F)cc(C(F)(F)F)c1)c1cccc(Cl)c1 (stereo not drawn) [Example 21, 1-(3,5-bis(trifluoromethyl)benzyloxy)-4-amino-2-(3-chlorophenyl)butan-2-ol] | 1 to 100 nM | 1 to 100 nM
9 | NCCC(O)(COCc1cc(F)cc(C(F)(F)F)c1)c1ccccc1 (stereo not drawn) [Example 51, 1-(3-fluoro-5-(trifluoromethyl)benzyloxy)-4-amino-2-phenylbutan-2-ol] | 1 to 100 nM | 1 to 100 nM
10 | CCCc1ccc(C(O)(CCN)COCc2cc(C(F)(F)F)cc(C(F)(F)F)c2)cc1 (stereo not drawn) [Example 35, 1-(3,5-bis(trifluoromethyl)benzyloxy)-4-amino-2-(4-propylphenyl)butan-2-ol] | 100 to 300 nM | > 300 nM
11 | NCCC(O)(COCc1cc(C(F)(F)F)cc(C(F)(F)F)c1)c1cccc(F)c1 (stereo not drawn) [Example 12, 1-(3,5-bis(trifluoromethyl)benzyloxy)-4-amino-2-(3-fluorophenyl)butan-2-ol] | 1 to 100 nM | 1 to 100 nM
12 | CN(C)CC(C)(COCc1cc(C(F)(F)F)cc(C(F)(F)F)c1)c1ccccc1 (stereo not drawn) [Example 79, 1-(3,5-bis(trifluoromethyl)benzyloxy)-3-dimethylamino-2-methyl-2-phenylpropane] | 1 to 100 nM | 1 to 100 nM
13 | COc1ccc(C(O)(CCN)COCc2cc(C(F)(F)F)cc(C(F)(F)F)c2)cc1F (stereo not drawn) [Example 23, 1-(3,5-bis(trifluoromethyl)benzyloxy)-4-amino-2-(3-fluoro-4-methoxyphenyl)butan-2-ol] | 1 to 100 nM | 1 to 100 nM
14 | NCC(O)(COCc1cc(C(F)(F)F)cc(C(F)(F)F)c1)c1ccccc1 (stereo not drawn) [Example 2, 1-(3,5-bis(trifluoromethyl)benzyloxy)-3-amino-2-phenylpropan-2-ol] | 1 to 100 nM | 1 to 100 nM
15 | CNCC(O)(COCc1cc(C(F)(F)F)cc(C(F)(F)F)c1)c1ccccc1 (stereo not drawn) [Example 3, 1-(3,5-bis(trifluoromethyl)benzyloxy)-3-(methylamino)-2-phenylpropan-2-ol] | 100 to 300 nM | 1 to 100 nM
16 | NCCC(O)(COCc1ccc(F)cc1)c1ccccc1 (stereo not drawn) [Example 59, 1-(4-fluorobenzyloxy)-4-amino-2-phenylbutan-2-ol] | 100 to 300 nM | > 300 nM
17 | CNCC(C)(COCc1cc(C(F)(F)F)cc(C(F)(F)F)c1)c1ccccc1 (stereo not drawn) [Example 78, 1-(3,5-bis(trifluoromethyl)benzyloxy)-3-methylamino-2-methyl-2-phenylpropane] | 100 to 300 nM | 100 to 300 nM
18 | NCCC(O)(COCc1cc(C(F)(F)F)cc(C(F)(F)F)c1)c1ccc(F)c(F)c1 (stereo not drawn) [Example 15, 1-(3,5-bis(trifluoromethyl)benzyloxy)-4-amino-2-(3,4-difluorophenyl)butan-2-ol] | 1 to 100 nM | 1 to 100 nM
19 | Cc1c(F)cccc1C(O)(CCN)COCc1cc(C(F)(F)F)cc(C(F)(F)F)c1 (stereo not drawn) [Example 36, 1-(3,5-bis(trifluoromethyl)benzyloxy)-4-amino-2-(3-fluoro-2-methylphenyl)butan-2-ol] | 1 to 100 nM | 1 to 100 nM
20 | NCCC(O)(COCc1cccc(C(F)(F)F)c1)c1ccccc1 (stereo not drawn) [Example 55, 1-(3-(trifluoromethyl)benzyloxy)-4-amino-2-phenylbutan-2-ol] | 100 to 300 nM | 100 to 300 nM
21 | Cc1ccc(C(O)(CCN)COCc2cc(C(F)(F)F)cc(C(F)(F)F)c2)c(C)c1 (stereo not drawn) [Example 30, 1-(3,5-bis(trifluoromethyl)benzyloxy)-4-amino-2-(2,4-dimethylphenyl)butan-2-ol] | 1 to 100 nM | 1 to 100 nM
22 | Cc1ccc(C(O)(CCN)COCc2cc(C(F)(F)F)cc(C(F)(F)F)c2)cc1 (stereo not drawn) [Example 9, 1-(3,5-bis(trifluoromethyl)benzyloxy)-4-amino-2-p-tolylbutan-2-ol] | 1 to 100 nM | 1 to 100 nM
23 | COc1ccc(C(O)(CCN)COCc2cc(C(F)(F)F)cc(C(F)(F)F)c2)cc1 (stereo not drawn) [Example 20, 1-(3,5-bis(trifluoromethyl)benzyloxy)-4-amino-2-(4-methoxyphenyl)butan-2-ol] | 1 to 100 nM | 100 to 300 nM
24 | NCCC(O)(COCc1cc(C(F)(F)F)cc(C(F)(F)F)c1)c1ccccc1 (racemic) [Example 7, 1-(3,5-bis(trifluoromethyl)benzyloxy)-4-amino-2-phenylbutan-2-ol] | > 300 nM | 100 to 300 nM
25 | Cc1cc(C)cc(COCC(O)(CCN)c2ccccc2)c1 (stereo not drawn) [Example 53, 1-(3,5-dimethylbenzyloxy)-4-amino-2-phenylbutan-2-ol] | 1 to 100 nM | 1 to 100 nM
26 | CN(C)CCC(C)(COCc1cc(C(F)(F)F)cc(C(F)(F)F)c1)c1ccccc1 (stereo not drawn) [Example 76, 1-(3,5-bis(trifluoromethyl)benzyloxy)-4-dimethylamino-2-methyl-2-phenylbutane] | 1 to 100 nM | 100 to 300 nM
27 | COc1ccccc1COCC(O)(CCN)c1ccccc1 (stereo not drawn) [Example 62, 1-(2-methoxybenzyloxy)-4-amino-2-phenylbutan-2-ol] | 1 to 100 nM | > 300 nM
28 | COc1cccc(C(O)(CCN)COCc2cc(C(F)(F)F)cc(C(F)(F)F)c2)c1 (stereo not drawn) [Example 14, 1-(3,5-bis(trifluoromethyl)benzyloxy)-4-amino-2-(3-methoxyphenyl)butan-2-ol] | 1 to 100 nM | 1 to 100 nM
29 | NCCC(O)(CNCc1cc(C(F)(F)F)cc(C(F)(F)F)c1)c1ccccc1 (stereo not drawn) [Example 81] |  | 100 to 300 nM

— patent publication US7179926B2, “Aryloxyalkylamine NK-1/SSRI inhibitors” (Bristol-Myers Squibb Company, priority 2004, dated 2007)
